Laboratory results from patent US10300029B2, “Organ protection solutions and method of use” (VIRGINIA COMMONWEALTH UNIVERSITY, priority 2011, dated 2019).

How the values were obtained:
shocked rodents = test: Hemorrhagic shock model, low volume resuscitation with gluconate (Example 4); assay type: in vivo
Method: Gluconate was administered in the organ protectant solution (e.g., a low volume resuscitation (LVR) solution with cell impermeants according to the present invention) in order to achieve a theoretical gluconate concentration of about 60 mM in the extracellular fluid compartment (subsequent experiments have shown that about 100 mM is probably optimal). The idea of low volume resuscitation is to give the shocked patient small volumes of intravenous fluids to prolong the time on the field to allow for rescue and transport to a forward hospital where more definitive resuscitation can occur (due to fewer resource limitations). The purpose of the addition of the cell impermeants to the LVR solution (usually saline) was to increase this “down time” further, effectively increasing the tolerance to the low flow state and making it more likely that the patient can survive the wait to the hospital. Essentially, the objective is to increase the “Golden Hour”.
In shock experiments, the time that the control animals could remain in the low volume state (after LVR administration) was 64 minutes. […] This means that these subjects were able to stay safely in the low volume state for much longer periods. In practical terms, they can wait longer for transport and full resuscitation, yet presumably have a higher chance of survival.

rodent capillaries = test system: rodent capillaries; design: species or system rats; details: rat, in vivo
Method: FIG. 10A-D. A) Diagram showing the shock, resuscitation, and recovery protocol used for these studies. The low volume resuscitation (LVR) time is the time from the start of the low volume resuscitation (after the lactate during hemorrhagic shock reaches 9-10 mM) until the time after the LVR infusion when the lactate rises back up to 9-10 mM again. This immediately precedes full resuscitation. The LVR time is a measure of the tolerance to the low volume state and is a function of the microcirculatory effectiveness since it is dependent on the rate of change of the plasma lactate. […] The numbers on the x-axis are the corresponding lactate concentrations in the plasma at the end of the LVR period. Most are close to 10 mM because that was the definition of the end of the LVR period. […] D) The oncotic reflection coefficient (σd) for PEG-20k was measured in six rats to determine the impermeant and the oncotic effects of this molecule in both the mesenteric vascular bed and the thoracic bed. FITC-labeled PEG-20k was used as a tracer molecule and the reflection coefficient was determined by measuring the lymph (L) to plasma (P) concentrations of FITC-PEG after an IV injection of the tracer under conditions of high lymph flow induced by volume loading with I.V. saline infusions (0.25 ml/min). […] FITC-labelled PEG-20k was measured by excitation-emission spectrofluorometry. […]

[1] = test system: juvenile swine in hemorrhagic shock
Excerpt: Saline control • b. […] Results

[2] = 24 hours after shock and resuscitation, vs controls

Method for normal pig blood: The (A) PT-INR and (B) aPTT effects were determined in both normal pig blood after ex-vivo mixing with PEG-20k LVR solutions (10% dilution) or with a saline control, also at a 10% solution, and after the end of the LVR period in pigs given PEG-20k based LVR solutions.
Juvenile swine (35-40 kn) were anesthetized with Ketamine/Xylazine, and propofol induction followed by isofluorane inhalation anesthesia maintenance (1-2%). A swan-Ganz catheter was introduced into the pulmonary artery via a cut down of the right jugular vein for the continuous measurement of cardiac output, pulmonary artery pressures, and sVO2 (mixed venous O2 saturation) by an optical sensor on the PA catheter. Blood pressure and arterial blood gases were measured by a line in the femoral artery. A line in the carotid artery and contralateral jugular vein was used for bleeding and resuscitation, respectively. […]
Finally, coagulation was determined in both normal pig blood after ex-vivo mixing with PEG-20k LVR solutions (10% dilution) or with a saline control, also at a 10% solution, and after the end of the LVR period in pigs given PEG-20k based LVR solutions.

Row | Compound | albumin (shocked rodents; [2]) | liver enzymes (shocked rodents; [2]) | metabolic acidosis (shocked rodents; [2]) | LVR time (shocked rodents; gluconate added to LVR solution, theoretical about 60 mM in extracellular fluid) | capillary oncotic reflection coefficient (rodent capillaries) | coagulation (PT-INR, aPTT), in-vivo [1] | coagulation (PT-INR, aPTT), ex-vivo mixing test (normal pig blood)
1 | O=C(O)[C@H](O)[C@@H](O)[C@H](O)[C@H](O)CO [gluconate] | higher | lower | less | over 106 minutes | – | – | –
2 | polyethylene glycol 20,000 [PEG-20k] | – | – | – | – | about 0.65 | not altered | not altered
